From patent publication US7524840B2, “7,8-disubstituted pyrazolobenzodiazepines” (Hoffmann-La Roche Inc., priority 2004, dated 2009)

Test system: H460a
Assay: H460a cell-based MTT proliferation assay
Conditions: 120 h, 5 days post addition of test compound, read-out: Antiproliferative Activity H460a Assay IC90
Protocol: The H460a cell line was purchased from (ATCC; Rockville, Md.) and was grown in the medium recommended by ATCC. For analysis of the effect of the test compounds on growth of these cells, the cells were plated at 150 cells per well in a 96-well tissue culture plate, and were incubated overnight at 37° C. with 5% CO2. The next day, the test compounds were dissolved in 100% dimethyl sulfoxide (DMSO) to yield a 10 mM stock solution. Each compound was diluted with sterile medium to 1 mM in a sufficient quantity to yield a final concentration of 120 μM. The compounds were then serially diluted in medium with 1.2% DMSO. One-fourth final volume of the diluted compounds was transferred to 96 well plates. Test compounds were assayed in duplicate. […] The plates were returned to the incubator, and 5 days post addition of test compound, were analyzed as described below. […] Absorbencies were read in a microtiter plate reader (Molecular Dynamics) at a wavelength of 570 nm with a 650 nm reference. Percent inhibition was calculated by subtracting the absorbance of the blank (no cell) wells from all wells, then subtracting the division of the average absorbance of each test duplicate by the average of the controls from 1.00. Inhibitory concentrations (IC50) were determined from the linear regression of a plot of the logarithm of the concentration versus the percent inhibition.

COc1cc2c(cc1F)C(c1ccccc1Cl)=Nc1c(n[nH]c1C)N2 [IVa, 5-(2-chlorophenyl)-1,2-dihydro-7-fluoro-8-methoxy-3-methyl-pyrazolo[3,4-b][1,4]benzodiazepine]
IC90: 1570 nM
